Data as given in publication PMC9661718, “Identification of Inhibitors of the Schistosoma mansoni VKR2 Kinase Domain” (ACS Medicinal Chemistry Letters, 2022).
“Also recorded” adds a separate entry of the source.

Tests used:
adult S. mansoni worms = experiment: Ex vivo adult S. mansoni phenotypic screen (descriptors and severity scores); set-up: species or system Schistosoma mansoni; key to Descriptors 2 h / Descriptors 5 h / Descriptors 24 h: degenerating (deg); uncoordinated (unc); slow (S); on sides, inability of worms to adhere to well floor with either the oral or ventral sucker; teg bleb, damage to the surface tegument; settings: 10 μM compound; for Descriptors 2 h / Descriptors 5 h / Descriptors 24 h: ex vivo adult worms
Experimental: The 12 compounds identified from the SPR screen were tested against ex vivo adult S. mansoni worms to investigate whether they induce phenotypic alterations in the parasite. Compound effects at 10 μM were assessed at 2, 5, and 24 h, and activity was partially quantified using an observation-based severity scoring system that is designed to holistically assess the many different responses to chemical insult of which the schistosome is capable.[26],[27] For those compounds eliciting phenotypic changes, WormAssay was also employed as an additional readout to measure average worm motility per well.[28],[29] Four compounds, GW696155, GSK986310, GSK1520489, and SB-710363, produced a variety of effects in the worm (Figure 1; Table 2; Table S1). GW696155 generated the strongest responses. […] Although, SPR identified 12 compounds against the SmVKR2KD (Table 1), the absence of phenotypic activity for eight of these compounds (Table S2) could be due to their poor uptake by the parasite. It is also possible that the phenotypic changes noted for the four active compounds are only partially related or unrelated to engagement of the SmVKR2 target. […]
Preparation of S. mansoni
The acquisition, preparation and in vitro maintenance of S. mansoni have been described 11, 12.
We use a Naval Medical Research Institute (NMRI) isolate of S. mansoni that is cycled between Biomphalaria glabrata snails and male Golden Syrian hamsters (infected at 4-6 weeks of age) as intermediate and definitive hosts, respectively. Briefly, adult worms were harvested from hamsters 42 days post-infection in RPMI or DMEM, and washed five times prior to maintenance overnight at 37 °C and 5% CO2 in Basch medium 13 containing 4% heat-inactivated FBS, 100 μg/ml streptomycin and 100 U/ml penicillin. activity against adult Ex vivoS. mansoni
Ex vivo screens with adults employed 24-well flat-bottomed plates and approximately five males, two to three of which were paired to females. Screens incorporated a final compound concentration of 10 μM in DMSO (0.5% final concentration). The complex and often dynamic phenotypic responses that the schistosome parasite is capable of were observed using a Zeiss Axiovert A1 inverted microscope at 2, 5 and 24 h. Observations were classified using a constrained nomenclature that involves simple “descriptors” to convey changes in shape, motility and appearance, and the inability of the male worm to adhere to the bottom of the well, compared to DMSO controls 11, 14, 15. Each descriptor was given a value of 1 and these were added up to yield a “severity score” with a maximum of 4. Evidence of degeneracy or death was awarded a value of 4 as was damage to the tegument (surface), on the understanding this would compromise survival in vivo. Scores were averaged across 3-5 individual experiments.

adult S. mansoni = experiment: WormAssay average worm motility per well; set-up: species or system Schistosoma mansoni; settings: 10 μM compound, 2, 5 and 24 h
Experimental: The 12 compounds identified from the SPR screen were tested against ex vivo adult S. mansoni worms to investigate whether they induce phenotypic alterations in the parasite. Compound effects at 10 μM were assessed at 2, 5, and 24 h, and activity was partially quantified using an observation-based severity scoring system that is designed to holistically assess the many different responses to chemical insult of which the schistosome is capable.[26],[27] For those compounds eliciting phenotypic changes, WormAssay was also employed as an additional readout to measure average worm motility per well.[28],[29] Four compounds, GW696155, GSK986310, GSK1520489, and SB-710363, produced a variety of effects in the worm (Figure 1; Table 2; Table S1). GW696155 generated the strongest responses. […] Although, SPR identified 12 compounds against the SmVKR2KD (Table 1), the absence of phenotypic activity for eight of these compounds (Table S2) could be due to their poor uptake by the parasite. It is also possible that the phenotypic changes noted for the four active compounds are only partially related or unrelated to engagement of the SmVKR2 target.
Figure 1 Changes in the average motility of adult S. mansoni as a function of time, as measured by WormAssay. Significance was determined by Student’s t-test (two-tailed): *P < 0.05, **p < 0.005, ***P < 0.0005. Data were derived from three to five biological assays with 10 μM compound. […]
The assay was performed according to the manufacturer’s recommendations without any modifications. The optimal concentration of the SmVKR2KD in the assay was established as µM. The autophosphorylation activity was measured at an ATP concentration of […] to aid the identification of competitive inhibitors as recommended by the ADP-Glo Kinase Assay (Promega) protocol. The autophosphorylation activity of the SmVKR2KD was measured in the presence and absence of inhibitors at various concentrations. […] The luminescence was measured using a CLARIOstar plate reader. […]

SmVKR1 = test system: SmVKR1; set-up: method as in PMID 23696913; settings: cited from earlier work
schistosomes = test system: schistosomes; set-up: method as in PMID 23696913; settings: cited from earlier work
SmVKR2 = test system: SmVKR2; set-up: method as in PMID 23696913; settings: cited from earlier work

Compound	Descriptors 2 h (adult S. mansoni worms)	Severity scores 2 h (adult S. mansoni worms; maximum score 4)	Descriptors 5 h (adult S. mansoni worms)	Severity scores 5 h (adult S. mansoni worms; maximum score 4)	Descriptors 24 h (adult S. mansoni worms)	Severity scores 24 h (adult S. mansoni worms; maximum score 4)	average worm motility (WormAssay) (adult S. mansoni)	severity score (adult S. mansoni worms; time not given, maximum score 4)	phenotypic activity assessed visually (adult S. mansoni worms; time not stated)	inhibition of SmVKR1 (SmVKR1)	apoptosis and egg production in schistosomes (schistosomes)	inhibition of SmVKR2 (SmVKR2)
NCCNS(=O)(=O)c1ccc(-c2ccnc3[nH]ccc23)cc1 [GSK977617]	none	0	none	0	none	0	–	–	–	–	–	–
CN(C)CCNS(=O)(=O)c1ccc(-c2ccnc3[nH]ccc23)cc1 [GSK977620]	none	0	none	0	none	0	–	–	–	–	–	–
Cc1cccc(Nc2nc(N[C@H]3CCCC[C@H]3N)ncc2C(N)=O)c1 [GSK986310]	S	1	S	1	S	1	milder effect in decreasing worm movement	1	–	–	–	–
CS(=O)(=O)Nc1ccc(-c2ccnc3[nH]ccc23)cc1 [GSK993273]	none	0	none	0	none	0	–	–	–	–	–	–
Cc1cccc(Nc2nc(NCCN)ncc2C(N)=O)c1 [GSK1292139]	none	0	none	0	none	0	–	–	–	–	–	–
CNC(=O)c1ccccc1Nc1nc(Nc2cccc(CS(C)(=O)=O)c2)ncc1C [GSK1520489]	unc	1	unc	1	unc	1	without a long-term decrease in average motility	–	mild uncoordinated motility	–	–	–
Cc1n[nH]c2cc(Nc3ccnc(Nc4cccc(CN5CCOCC5)c4)n3)ccc12 [GW682569]	none	0	none	0	none	0	–	–	–	–	–	–
CC(C)Oc1ccc2c(-c3ccnc(Nc4ccc(N5CCN(C)CC5)cc4)n3)cnn2n1 [GW696155]	decreased motility and lost their ability to adhere to the floor of the well; also recorded: S, on sides	2	Dark, S, on sides	3	worm degeneration and damage to the surface tegument in the form of blebs or bubbles; also recorded: Deg, S, on sides, teg bleb	4	decrease in average worm motility over time	–	–	–	–	–
NC(=O)Nc1sc(-c2ccc(F)cc2)cc1C(N)=O [GW789449]	none	0	none	0	none	0	–	–	–	–	–	–
Nc1n[nH]c2cnc(-c3ccccc3)cc12 [SB-642124]	none	0	none	0	none	0	–	–	–	–	–	–
Nc1nc(N)c2[nH]c(-c3ccccc3)nc2n1 [SKF-12778]	none	0	none	0	none	0	–	–	–	–	–	–
CC(C)(C)c1cc(C=C(C#N)C#N)cc(Br)c1O [tyrphostin AG1024]	–	–	–	–	–	–	–	–	–	inhibited	concentration-dependent apoptosis and cessation of egg production	inhibited
